Test results reported in article PMC12736120, “First-in-Human Phase I Clinical Trial of SLC-391, a Novel and Selective AXL Inhibitor, in Patients with Advanced Solid Tumours” (Pharmaceuticals, 2025).

Assay: Phase I safety and tolerability (DLTs, adverse events, laboratory, ECG)
Format: in vivo
Protocol: This study employed a standard 3 + 3 dose escalation design with a starting dose of 25 mg QD. […] Dose escalation decisions took into account all available data from evaluable subjects as well as PK and the safety profile of prior dose cohorts. […] There was a minimum 5-day stagger between dosing of the first and second subjects in each dose cohort. Dose escalation decisions were made by a data review committee (DRC) composed of, at minimum, the medical monitor, at least one principal investigator, and a sponsor representative, per the study DRC Plan. Dose escalation could continue until 2 or more subjects in the same dose cohort experienced a dose-limiting toxicity (DLT). DLTs were defined as Grade 3 or 4 adverse drug reactions (ADRs), with grades as defined in the National Cancer Institute Common Toxicity Criteria for Adverse Events (NCI-CTCAE) version 5.0. […] The MTD was defined as the highest dose at which no more than 1 of 6 subjects experienced a DLT during cycle 1 of the study drug. The MTD would have been exceeded if 2 or more subjects in a dose cohort of up to 6 subjects experienced a DLT. Subjects could continue treatment until disease progression, unacceptable toxicity, death, withdrawal of consent, or loss to follow-up.
Before enrolment in the study, all patients received a detailed medical history and physical examination. Clinical laboratory evaluations included clinical chemistry, complete blood count, urinalysis, coagulation factors, and a lipid panel. Other safety assessments included vital signs, physical examination, electrocardiogram, and echocardiogram with multigated acquisition (ECHO/MUGA). Safety assessments were performed on days 1, 8, 15, and 21 of cycle 1, and on day 1 of cycles 2 to 6.

[1] = Grade 1, Overall Study (N = 35)
[2] = Grade 2, Overall Study (N = 35)

Nc1ncc(-c2cnn(C3CCNCC3)c2)cc1-c1nnc(CC2CC2)o1 [SLC-391, 3-(5-[cyclopropylmethyl]-1,3,4-oxadiazol-2-yl)-5-(1-[piperidin-4-yl]-1H-pyrazol-4-yl)-pyridin-2-amine]
TEAE: Abdominal distension [1]: 4 (11.4) n (%)
TEAE: Abdominal pain [1]: 4 (11.4) n (%)
TEAE: Back pain [1]: 1 (2.9) n (%)
TEAE: Blood and lymphatic system disorders [1]: 1 (2.9) n (%)
TEAE: Chills [1]: 6 (17.1) n (%)
TEAE: Constipation [1]: 10 (28.6) n (%)
TEAE: Cough [1]: 6 (17.1) n (%)
TEAE: Decreased appetite [1]: 7 (20.0) n (%)
TEAE: Diarrhoea [1]: 14 (40.0) n (%)
TEAE: Dizziness [1]: 4 (11.4) n (%)
TEAE: Dysgeusia [1]: 1 (2.9) n (%)
TEAE: Dyspnoea [1]: 2 (5.7) n (%)
TEAE: Fatigue [1]: 10 (28.6) n (%)
TEAE: Gastrointestinal disorders [1]: 15 (42.9) n (%)
TEAE: General disorders and administration site conditions [1]: 12 (34.3) n (%)
TEAE: Haematuria [1]: 4 (11.4) n (%)
TEAE: Headache [1]: 5 (14.3) n (%)
TEAE: Infections and infestations [1]: 1 (2.9) n (%)
TEAE: Investigations [1]: 7 (20.0) n (%)
TEAE: Metabolism and nutrition disorders [1]: 5 (14.3) n (%)
TEAE: Musculoskeletal and connective tissue disorders [1]: 7 (20.0) n (%)
TEAE: Nausea [1]: 15 (42.9) n (%)
TEAE: Nervous system disorders [1]: 11 (31.4) n (%)
TEAE: Oedema peripheral [1]: 3 (8.6) n (%)
TEAE: Psychiatric disorders [1]: 3 (8.6) n (%)
TEAE: Pyrexia [1]: 4 (11.4) n (%)
TEAE: Renal and urinary disorders [1]: 3 (8.6) n (%)
TEAE: Respiratory, thoracic, and mediastinal disorders [1]: 5 (14.3) n (%)
TEAE: Skin and subcutaneous tissue disorders [1]: 6 (17.1) n (%)
TEAE: Vomiting [1]: 13 (37.1) n (%)
TEAE: Weight decreased [1]: 6 (17.1) n (%)
Any treatment-emergent adverse event (TEAE) (Grade 2, Overall BID (N = 15)): 7 (46.7) n (%)
TEAE: Abdominal distension (Grade 2, Overall BID (N = 15)): 1 (6.7) n (%)
TEAE: Abdominal pain (Grade 2, Overall BID (N = 15)): 0 n (%)
TEAE: Back pain (Grade 2, Overall BID (N = 15)): 2 (13.3) n (%)
TEAE: Blood and lymphatic system disorders (Grade 2, Overall BID (N = 15)): 0 n (%)
TEAE: Constipation (Grade 2, Overall BID (N = 15)): 2 (13.3) n (%)
TEAE: Cough (Grade 2, Overall BID (N = 15)): 1 (6.7) n (%)
TEAE: Decreased appetite (Grade 2, Overall BID (N = 15)): 4 (26.7) n (%)
TEAE: Diarrhoea (Grade 2, Overall BID (N = 15)): 2 (13.3) n (%)
TEAE: Dysgeusia (Grade 2, Overall BID (N = 15)): 2 (13.3) n (%)
TEAE: Dyspnoea (Grade 2, Overall BID (N = 15)): 5 (33.3) n (%)
TEAE: Fatigue (Grade 2, Overall BID (N = 15)): 5 (33.3) n (%)
TEAE: Gastrointestinal disorders (Grade 2, Overall BID (N = 15)): 5 (33.3) n (%)
TEAE: General disorders and administration site conditions (Grade 2, Overall BID (N = 15)): 6 (40.0) n (%)
TEAE: Haematuria (Grade 2, Overall BID (N = 15)): 1 (6.7) n (%)
TEAE: Infections and infestations (Grade 2, Overall BID (N = 15)): 5 (33.3) n (%)
TEAE: Investigations (Grade 2, Overall BID (N = 15)): 1 (6.7) n (%)
TEAE: Metabolism and nutrition disorders (Grade 2, Overall BID (N = 15)): 5 (33.3) n (%)
TEAE: Musculoskeletal and connective tissue disorders (Grade 2, Overall BID (N = 15)): 3 (20.0) n (%)
TEAE: Nausea (Grade 2, Overall BID (N = 15)): 4 (26.7) n (%)
TEAE: Nervous system disorders (Grade 2, Overall BID (N = 15)): 2 (13.3) n (%)
TEAE: Oedema peripheral (Grade 2, Overall BID (N = 15)): 1 (6.7) n (%)
TEAE: Psychiatric disorders (Grade 2, Overall BID (N = 15)): 2 (13.3) n (%)
TEAE: Pyrexia (Grade 2, Overall BID (N = 15)): 0 n (%)
TEAE: Renal and urinary disorders (Grade 2, Overall BID (N = 15)): 1 (6.7) n (%)
TEAE: Respiratory, thoracic, and mediastinal disorders (Grade 2, Overall BID (N = 15)): 6 (40.0) n (%)
TEAE: Skin and subcutaneous tissue disorders (Grade 2, Overall BID (N = 15)): 0 n (%)
TEAE: Urinary tract infection (Grade 2, Overall BID (N = 15)): 3 (20.0) n (%)
TEAE: Vascular disorders (Grade 2, Overall BID (N = 15)): 1 (6.7) n (%)
TEAE: Vomiting (Grade 2, Overall BID (N = 15)): 1 (6.7) n (%)
Any treatment-emergent adverse event (TEAE) (Grade 2, Overall QD (N = 20)): 12 (60.0) n (%)
TEAE: Abdominal distension (Grade 2, Overall QD (N = 20)): 1 (5.0) n (%)
TEAE: Abdominal pain (Grade 2, Overall QD (N = 20)): 1 (5.0) n (%)
TEAE: Back pain (Grade 2, Overall QD (N = 20)): 1 (5.0) n (%)
TEAE: Blood and lymphatic system disorders (Grade 2, Overall QD (N = 20)): 1 (5.0) n (%)
TEAE: Constipation (Grade 2, Overall QD (N = 20)): 2 (10.0) n (%)
TEAE: Cough (Grade 2, Overall QD (N = 20)): 0 n (%)
TEAE: Decreased appetite (Grade 2, Overall QD (N = 20)): 1 (5.0) n (%)
TEAE: Diarrhoea (Grade 2, Overall QD (N = 20)): 3 (15.0) n (%)
TEAE: Dysgeusia (Grade 2, Overall QD (N = 20)): 1 (5.0) n (%)
TEAE: Dyspnoea (Grade 2, Overall QD (N = 20)): 4 (20.0) n (%)
TEAE: Fatigue (Grade 2, Overall QD (N = 20)): 6 (30.0) n (%)
TEAE: Gastrointestinal disorders (Grade 2, Overall QD (N = 20)): 6 (30.0) n (%)
TEAE: General disorders and administration site conditions (Grade 2, Overall QD (N = 20)): 8 (40.0) n (%)
TEAE: Haematuria (Grade 2, Overall QD (N = 20)): 0 n (%)
TEAE: Infections and infestations (Grade 2, Overall QD (N = 20)): 3 (15.0) n (%)
TEAE: Investigations (Grade 2, Overall QD (N = 20)): 0 n (%)
TEAE: Metabolism and nutrition disorders (Grade 2, Overall QD (N = 20)): 2 (10.0) n (%)
TEAE: Musculoskeletal and connective tissue disorders (Grade 2, Overall QD (N = 20)): 2 (10.0) n (%)
TEAE: Nausea (Grade 2, Overall QD (N = 20)): 4 (20.0) n (%)
TEAE: Nervous system disorders (Grade 2, Overall QD (N = 20)): 2 (10.0) n (%)
TEAE: Oedema peripheral (Grade 2, Overall QD (N = 20)): 0 n (%)
TEAE: Psychiatric disorders (Grade 2, Overall QD (N = 20)): 0 n (%)
TEAE: Pyrexia (Grade 2, Overall QD (N = 20)): 1 (5.0) n (%)
TEAE: Renal and urinary disorders (Grade 2, Overall QD (N = 20)): 1 (5.0) n (%)
TEAE: Respiratory, thoracic, and mediastinal disorders (Grade 2, Overall QD (N = 20)): 6 (30.0) n (%)
TEAE: Skin and subcutaneous tissue disorders (Grade 2, Overall QD (N = 20)): 3 (15.0) n (%)
TEAE: Urinary tract infection (Grade 2, Overall QD (N = 20)): 1 (5.0) n (%)
TEAE: Vascular disorders (Grade 2, Overall QD (N = 20)): 2 (10.0) n (%)
TEAE: Vomiting (Grade 2, Overall QD (N = 20)): 2 (10.0) n (%)
Any treatment-emergent adverse event (TEAE) [2]: 19 (54.3) n (%)
TEAE: Abdominal distension [2]: 2 (5.7) n (%)
TEAE: Abdominal pain [2]: 1 (2.9) n (%)
TEAE: Back pain [2]: 3 (8.6) n (%)
TEAE: Blood and lymphatic system disorders [2]: 1 (2.9) n (%)
TEAE: Constipation [2]: 4 (11.4) n (%)
TEAE: Cough [2]: 1 (2.9) n (%)
TEAE: Decreased appetite [2]: 5 (14.3) n (%)
TEAE: Diarrhoea [2]: 5 (14.3) n (%)
TEAE: Dysgeusia [2]: 3 (8.6) n (%)
TEAE: Dyspnoea [2]: 9 (25.7) n (%)
TEAE: Fatigue [2]: 11 (31.4) n (%)
TEAE: Gastrointestinal disorders [2]: 11 (31.4) n (%)
TEAE: General disorders and administration site conditions [2]: 14 (40.0) n (%)
TEAE: Haematuria [2]: 1 (2.9) n (%)
TEAE: Infections and infestations [2]: 8 (22.9) n (%)
TEAE: Investigations [2]: 1 (2.9) n (%)
TEAE: Metabolism and nutrition disorders [2]: 7 (20.0) n (%)
TEAE: Musculoskeletal and connective tissue disorders [2]: 5 (14.3) n (%)
TEAE: Nausea [2]: 8 (22.9) n (%)
TEAE: Nervous system disorders [2]: 4 (11.4) n (%)
TEAE: Oedema peripheral [2]: 1 (2.9) n (%)
TEAE: Psychiatric disorders [2]: 2 (5.7) n (%)
TEAE: Pyrexia [2]: 1 (2.9) n (%)
TEAE: Renal and urinary disorders [2]: 2 (5.7) n (%)
TEAE: Respiratory, thoracic, and mediastinal disorders [2]: 12 (34.3) n (%)
TEAE: Skin and subcutaneous tissue disorders [2]: 3 (8.6) n (%)
TEAE: Urinary tract infection [2]: 4 (11.4) n (%)
TEAE: Vascular disorders [2]: 3 (8.6) n (%)
TEAE: Vomiting [2]: 3 (8.6) n (%)
Any treatment-emergent adverse event (TEAE) (Grade 3, Overall BID (N = 15)): 6 (40.0) n (%)
TEAE: Blood and lymphatic system disorders (Grade 3, Overall BID (N = 15)): 1 (6.7) n (%)
TEAE: Diarrhoea (Grade 3, Overall BID (N = 15)): 1 (6.7) n (%)
TEAE: Dyspnoea (Grade 3, Overall BID (N = 15)): 0 n (%)
TEAE: Fatigue (Grade 3, Overall BID (N = 15)): 1 (6.7) n (%)
TEAE: Gastrointestinal disorders (Grade 3, Overall BID (N = 15)): 1 (6.7) n (%)
TEAE: General disorders and administration site conditions (Grade 3, Overall BID (N = 15)): 1 (6.7) n (%)
TEAE: Infections and infestations (Grade 3, Overall BID (N = 15)): 1 (6.7) n (%)
